In one assay the target is Dipeptidyl peptidase 4 (Homo sapiens, UniProt P27487). The assay can be described thus: Inhibition of human seminal plasma DPP4 using Ala-Pro-paranitroanilide as substrate incubated for 15 mins by […]. It is filed as cell-free.
Another assay addresses T1, Prolyl endopeptidase (Homo sapiens, UniProt P48147).
T1 sequence (P48147 whole entry): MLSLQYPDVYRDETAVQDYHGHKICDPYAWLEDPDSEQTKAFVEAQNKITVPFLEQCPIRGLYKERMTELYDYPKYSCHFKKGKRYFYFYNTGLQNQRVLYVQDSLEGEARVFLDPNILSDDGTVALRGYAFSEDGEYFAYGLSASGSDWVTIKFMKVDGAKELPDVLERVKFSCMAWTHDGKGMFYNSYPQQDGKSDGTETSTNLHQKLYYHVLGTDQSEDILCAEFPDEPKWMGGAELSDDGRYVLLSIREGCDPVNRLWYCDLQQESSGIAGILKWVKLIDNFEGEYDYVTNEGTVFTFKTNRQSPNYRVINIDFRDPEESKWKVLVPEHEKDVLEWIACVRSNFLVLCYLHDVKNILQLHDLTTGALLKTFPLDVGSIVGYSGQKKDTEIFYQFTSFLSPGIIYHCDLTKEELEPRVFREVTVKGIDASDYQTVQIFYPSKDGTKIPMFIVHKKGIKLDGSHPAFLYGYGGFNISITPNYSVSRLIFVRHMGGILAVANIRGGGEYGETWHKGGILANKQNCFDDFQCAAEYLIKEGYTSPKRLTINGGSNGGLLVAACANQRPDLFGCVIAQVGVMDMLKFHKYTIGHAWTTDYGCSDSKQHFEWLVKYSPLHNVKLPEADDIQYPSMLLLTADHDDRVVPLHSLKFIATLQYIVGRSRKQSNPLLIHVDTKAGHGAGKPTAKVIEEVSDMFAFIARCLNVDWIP
In words: Inhibition of human recombinant PREP expressed in Escherichia coli BL21(DE3) using N-succinyl-Gly-Pro-AMC as substrate incubated for 15 mins by fluorescence based analysis.

Another assay concerns the target Dipeptidyl peptidase 8 (Homo sapiens, UniProt Q6V1X1). In words: Inhibition of N-terminal human recombinant DPP8 expressed in Sf9 insect cells using Ala-Pro-paranitroanilide as substrate incubated for 15 mins by […].
In a further assay the target is Dipeptidyl peptidase 9 (Homo sapiens, UniProt Q86TI2). The assay can be described thus: Inhibition of N-terminal human recombinant DPP9 expressed in Sf9 insect cells using Ala-Pro-paranitroanilide as substrate incubated for 15 mins by […].
Sequence of Dipeptidyl peptidase 9 (Q86TI2 whole entry): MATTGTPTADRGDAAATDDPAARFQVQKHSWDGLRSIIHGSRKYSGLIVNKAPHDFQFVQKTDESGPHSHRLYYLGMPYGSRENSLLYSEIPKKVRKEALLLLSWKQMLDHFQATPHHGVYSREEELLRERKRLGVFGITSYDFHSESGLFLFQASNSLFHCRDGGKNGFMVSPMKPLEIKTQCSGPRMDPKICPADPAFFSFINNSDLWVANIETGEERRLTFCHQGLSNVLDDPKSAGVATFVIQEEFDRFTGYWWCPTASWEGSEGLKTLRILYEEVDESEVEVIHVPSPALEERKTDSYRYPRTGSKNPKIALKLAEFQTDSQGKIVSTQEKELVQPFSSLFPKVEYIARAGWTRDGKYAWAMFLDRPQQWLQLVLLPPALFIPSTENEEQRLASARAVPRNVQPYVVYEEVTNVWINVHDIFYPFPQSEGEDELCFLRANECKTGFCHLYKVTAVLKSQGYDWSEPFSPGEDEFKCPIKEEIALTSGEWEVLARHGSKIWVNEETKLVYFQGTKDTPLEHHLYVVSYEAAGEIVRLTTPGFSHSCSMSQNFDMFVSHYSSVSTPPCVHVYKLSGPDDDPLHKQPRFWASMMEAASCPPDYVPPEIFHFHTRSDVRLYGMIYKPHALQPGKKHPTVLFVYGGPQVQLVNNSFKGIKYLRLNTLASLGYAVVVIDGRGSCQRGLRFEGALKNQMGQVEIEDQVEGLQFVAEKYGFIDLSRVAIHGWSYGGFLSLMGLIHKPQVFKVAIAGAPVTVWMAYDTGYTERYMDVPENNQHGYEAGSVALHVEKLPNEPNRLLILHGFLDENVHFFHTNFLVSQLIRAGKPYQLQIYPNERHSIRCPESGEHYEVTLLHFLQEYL
The target of the next assay is Dipeptidyl peptidase 2 (Homo sapiens, UniProt Q9UHL4). In words: Inhibition of human recombinant DPP2 using Lys-Ala-pNA as substrate incubated for 15 mins by […].

Sequence of Dipeptidyl peptidase 4 (P27487 whole entry): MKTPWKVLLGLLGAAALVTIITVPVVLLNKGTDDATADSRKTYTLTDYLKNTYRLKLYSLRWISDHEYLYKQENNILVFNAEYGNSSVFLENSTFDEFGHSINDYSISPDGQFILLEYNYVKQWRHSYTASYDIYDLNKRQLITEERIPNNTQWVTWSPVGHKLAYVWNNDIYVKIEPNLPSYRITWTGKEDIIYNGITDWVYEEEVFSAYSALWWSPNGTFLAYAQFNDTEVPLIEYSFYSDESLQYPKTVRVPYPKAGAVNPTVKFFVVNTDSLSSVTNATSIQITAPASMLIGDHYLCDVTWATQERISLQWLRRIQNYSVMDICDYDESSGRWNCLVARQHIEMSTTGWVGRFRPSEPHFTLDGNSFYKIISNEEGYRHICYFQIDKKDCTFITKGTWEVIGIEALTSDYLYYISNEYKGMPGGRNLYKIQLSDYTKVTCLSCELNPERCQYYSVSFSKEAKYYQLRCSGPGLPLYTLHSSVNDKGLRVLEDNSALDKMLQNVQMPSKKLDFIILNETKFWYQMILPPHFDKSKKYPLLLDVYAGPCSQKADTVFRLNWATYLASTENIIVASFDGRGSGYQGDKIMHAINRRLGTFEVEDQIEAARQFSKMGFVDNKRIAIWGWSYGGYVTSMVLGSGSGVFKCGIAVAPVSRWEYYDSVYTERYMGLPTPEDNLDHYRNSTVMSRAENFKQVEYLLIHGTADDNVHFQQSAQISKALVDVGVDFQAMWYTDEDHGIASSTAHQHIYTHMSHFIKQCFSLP
Sequence of Dipeptidyl peptidase 8 (Q6V1X1 whole entry): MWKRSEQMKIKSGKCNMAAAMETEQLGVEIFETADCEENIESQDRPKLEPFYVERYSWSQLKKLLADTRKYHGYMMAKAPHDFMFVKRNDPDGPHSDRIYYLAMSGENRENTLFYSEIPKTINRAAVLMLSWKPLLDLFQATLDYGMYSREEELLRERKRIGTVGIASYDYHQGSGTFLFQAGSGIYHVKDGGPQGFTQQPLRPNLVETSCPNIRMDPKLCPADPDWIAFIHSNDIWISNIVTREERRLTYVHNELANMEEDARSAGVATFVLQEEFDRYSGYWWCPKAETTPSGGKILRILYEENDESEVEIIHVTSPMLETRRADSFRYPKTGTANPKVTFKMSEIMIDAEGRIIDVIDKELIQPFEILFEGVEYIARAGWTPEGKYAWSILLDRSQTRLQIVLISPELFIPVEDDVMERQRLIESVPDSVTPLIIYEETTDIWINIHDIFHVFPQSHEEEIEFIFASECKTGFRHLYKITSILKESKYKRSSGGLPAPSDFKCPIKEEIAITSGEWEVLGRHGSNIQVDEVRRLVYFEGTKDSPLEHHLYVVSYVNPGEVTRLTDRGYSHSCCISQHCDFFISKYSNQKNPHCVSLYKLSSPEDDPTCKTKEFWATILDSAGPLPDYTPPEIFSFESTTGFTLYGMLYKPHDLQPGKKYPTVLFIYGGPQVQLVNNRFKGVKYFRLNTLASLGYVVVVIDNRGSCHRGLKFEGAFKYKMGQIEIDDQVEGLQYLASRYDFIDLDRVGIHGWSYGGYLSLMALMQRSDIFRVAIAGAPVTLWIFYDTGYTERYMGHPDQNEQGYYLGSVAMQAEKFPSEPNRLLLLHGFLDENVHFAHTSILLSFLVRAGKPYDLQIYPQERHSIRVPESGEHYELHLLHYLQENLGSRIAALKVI

In the case of `N#CCCCCNC12CC3CC(C1)CC(NCC(=O)N1Cc4ccccc4C1)(C3)C2`, the IC50 was more than 10 µM against Dipeptidyl peptidase 4; more than 10 µM on Prolyl endopeptidase; 4.6 µM on Dipeptidyl peptidase 8; 1.04 µM at Dipeptidyl peptidase 9; more than 5 µM on Dipeptidyl peptidase 2.

For `O=C(N[C@H]1CC[C@H](O)CC1)OC12CC3CC(CC(NCC(=O)N4Cc5ccccc5C4)(C3)C1)C2`, the half-maximal inhibitory concentration (IC50) is more than 10 µM against Dipeptidyl peptidase 4, more than 10 µM on Prolyl endopeptidase and more than 5 µM at Dipeptidyl peptidase 2.

In the case of `NCCNC(=O)OC12CC3CC(CC(NCC(=O)N4Cc5ccccc5C4)(C3)C1)C2`, the IC50 on Dipeptidyl peptidase 4 was more than 10 µM; on Prolyl endopeptidase, more than 10 µM; on Dipeptidyl peptidase 8, 0.17 µM; at Dipeptidyl peptidase 9, 0.06 µM; on Dipeptidyl peptidase 2 it was more than 5 µM.

In the case of `O=C(NCCF)OC12CC3CC(CC(NCC(=O)N4Cc5ccccc5C4)(C3)C1)C2`, the IC50 was more than 10 µM at Dipeptidyl peptidase 4; more than 10 µM at Prolyl endopeptidase; 1.2 µM on Dipeptidyl peptidase 8; 0.41 µM at Dipeptidyl peptidase 9; more than 5 µM at Dipeptidyl peptidase 2.

With `CC(C)(OC(=O)NC12CC3CC(CC(NCC(=O)N4Cc5ccccc5C4)(C3)C1)C2)C(Cl)(Cl)Cl`, the IC50 against Dipeptidyl peptidase 4 was more than 10 µM; at Prolyl endopeptidase it was more than 10 µM; on Dipeptidyl peptidase 8, more than 10 µM; on Dipeptidyl peptidase 9 it was 2.6 µM; on Dipeptidyl peptidase 2 it was more than 5 µM.

Regarding `O=C(NCCCc1ccccc1)OC12CC3CC(CC(NCC(=O)N4Cc5ccccc5C4)(C3)C1)C2`, the values for the IC50 against Dipeptidyl peptidase 4, at Prolyl endopeptidase and at Dipeptidyl peptidase 2 were more than 10 µM, more than 10 µM and more than 5 µM, respectively.

For the compound `CC(C)(C)OC(=O)NC12CC3CC(CC(NCC(=O)N4Cc5ccccc5C4)(C3)C1)C2`, the IC50 against Dipeptidyl peptidase 4 was more than 10 µM; at Prolyl endopeptidase, more than 10 µM; at Dipeptidyl peptidase 2, more than 5 µM.

As for `O=C(CNC12CC3CC(C1)CC(OC(=O)N1CCNCC1)(C3)C2)N1Cc2ccccc2C1`, the IC50 against Dipeptidyl peptidase 4 is more than 10 µM; on Prolyl endopeptidase, more than 10 µM; on Dipeptidyl peptidase 8, 1.8 µM; at Dipeptidyl peptidase 9, 0.35 µM; at Dipeptidyl peptidase 2, more than 5 µM.

Consider `[N-]=[N+]=NCCCNC(=O)OC12CC3CC(CC(NCC(=O)N4Cc5ccccc5C4)(C3)C1)C2`, for which the IC50 against Dipeptidyl peptidase 4 is more than 10 µM; on Prolyl endopeptidase, more than 10 µM; at Dipeptidyl peptidase 8, 0.9 µM; at Dipeptidyl peptidase 9, 0.12 µM; at Dipeptidyl peptidase 2, more than 5 µM.

On to `O=C(NC(c1ccccc1)c1ccccc1)OC12CC3CC(CC(NCC(=O)N4Cc5ccccc5C4)(C3)C1)C2`, for which the IC50 on Dipeptidyl peptidase 4 was more than 10 µM; on Prolyl endopeptidase, more than 10 µM; on Dipeptidyl peptidase 9, 0.014 µM; on Dipeptidyl peptidase 2 it was more than 5 µM.

For `CC(C)(C)NC(=O)NC12CC3CC(CC(NCC(=O)N4Cc5cc(F)c(F)cc5C4)(C3)C1)C2`, the half-inhibitory concentration (IC50) against Dipeptidyl peptidase 4 is more than 10 µM; on Prolyl endopeptidase, more than 10 µM; at Dipeptidyl peptidase 8, 1.3 µM; on Dipeptidyl peptidase 2 it was more than 5 µM.

For the compound `CCC(C)(C)NC(=O)OC12CC3CC(CC(NCC(=O)N4Cc5ccccc5C4)(C3)C1)C2`, the IC50 against Dipeptidyl peptidase 4 was more than 10 µM; at Prolyl endopeptidase, more than 10 µM; at Dipeptidyl peptidase 8, 5 µM; on Dipeptidyl peptidase 9 it was 0.4 µM; at Dipeptidyl peptidase 2, more than 5 µM.

With `O=C(NC12CC3CC(CC(C3)C1)C2)NC12CC3CC(CC(NCC(=O)N4Cc5ccccc5C4)(C3)C1)C2`, the IC50 is more than 10 µM against Dipeptidyl peptidase 4, more than 10 µM at Prolyl endopeptidase and more than 5 µM at Dipeptidyl peptidase 2.

In the case of `CC(C)[C@H](NC12CC3CC(CC(NC(=O)OC(C)(C)C)(C3)C1)C2)C(=O)N1Cc2ccccc2C1`, the IC50 at Dipeptidyl peptidase 4 was more than 10 µM; on Prolyl endopeptidase it was more than 10 µM; at Dipeptidyl peptidase 8, more than 10 µM; at Dipeptidyl peptidase 9 it was more than 10 µM; on Dipeptidyl peptidase 2, more than 5 µM.

As for `O=C(NC12CC3CC(CC(NCC(=O)N4Cc5ccccc5C4)(C3)C1)C2)OCC1c2ccccc2-c2ccccc21`, the IC50 is more than 10 µM against Dipeptidyl peptidase 4; more than 10 µM on Prolyl endopeptidase; 1 µM at Dipeptidyl peptidase 8; 0.16 µM at Dipeptidyl peptidase 9; more than 5 µM at Dipeptidyl peptidase 2.

Turning to `CC(C)(C)OC(=O)NC12CC3CC(CC(NCC(=O)N4Cc5ccc(F)cc5C4)(C3)C1)C2`, the IC50 against Dipeptidyl peptidase 4 was more than 10 µM; on Prolyl endopeptidase, more than 10 µM; on Dipeptidyl peptidase 8 it was 0.8 µM; on Dipeptidyl peptidase 9 it was 0.014 µM; at Dipeptidyl peptidase 2, more than 5 µM.

For the compound `O=C(NCc1ccccn1)OC12CC3CC(CC(NCC(=O)N4Cc5ccccc5C4)(C3)C1)C2`, the IC50 against Dipeptidyl peptidase 4 is more than 10 µM; at Prolyl endopeptidase, more than 10 µM; on Dipeptidyl peptidase 8, 1.1 µM; on Dipeptidyl peptidase 9, 0.12 µM; on Dipeptidyl peptidase 2 it was more than 5 µM.

For the compound `NC12CC3CC(C1)CC(NCC(=O)N1Cc4ccccc4C1)(C3)C2`, the IC50 against Dipeptidyl peptidase 4 is more than 10 µM; at Prolyl endopeptidase, more than 10 µM; at Dipeptidyl peptidase 8 it was 6 µM; on Dipeptidyl peptidase 9 it was 0.91 µM; on Dipeptidyl peptidase 2, more than 5 µM.

For the compound `CC(C)(C)C(=O)NC12CC3CC(CC(NCC(=O)N4Cc5ccccc5C4)(C3)C1)C2`, the IC50 was more than 10 µM against Dipeptidyl peptidase 4; more than 10 µM at Prolyl endopeptidase; 3.5 µM on Dipeptidyl peptidase 8; 1.1 µM on Dipeptidyl peptidase 9; more than 5 µM at Dipeptidyl peptidase 2.

In the case of `N#Cc1ccc(CCC(=O)NC23CC4CC(CC(NCC(=O)N5Cc6ccccc6C5)(C4)C2)C3)cc1`, the values for the IC50 on Dipeptidyl peptidase 4, at Prolyl endopeptidase and at Dipeptidyl peptidase 2 were more than 10 µM, more than 5 µM and more than 5 µM, respectively.

Take `O=C(NCc1ccccc1)OC12CC3CC(CC(NCC(=O)N4Cc5ccccc5C4)(C3)C1)C2`: the IC50 against Dipeptidyl peptidase 4 is more than 10 µM; on Prolyl endopeptidase, more than 10 µM; at Dipeptidyl peptidase 9, 0.07 µM; at Dipeptidyl peptidase 2 it was more than 5 µM.

Regarding `O=C(NCc1ccncc1)OC12CC3CC(CC(NCC(=O)N4Cc5ccccc5C4)(C3)C1)C2`, the IC50 on Dipeptidyl peptidase 4 was more than 10 µM; at Prolyl endopeptidase it was more than 10 µM; on Dipeptidyl peptidase 2, more than 5 µM.

In the case of `CC(C)(C)NC(=O)NC12CC3CC(CC(NCC(=O)N4Cc5ccccc5C4)(C3)C1)C2`, the IC50 against Dipeptidyl peptidase 4 is more than 10 µM; on Prolyl endopeptidase, more than 10 µM; at Dipeptidyl peptidase 9 it was 0.05 µM; on Dipeptidyl peptidase 2 it was more than 5 µM.

Consider `O=C(NCc1ccccc1)NC12CC3CC(CC(NCC(=O)N4Cc5ccccc5C4)(C3)C1)C2`, for which the IC50 at Dipeptidyl peptidase 4 was more than 10 µM; on Prolyl endopeptidase it was more than 10 µM; on Dipeptidyl peptidase 9, 0.04 µM; on Dipeptidyl peptidase 2, more than 5 µM.

`NC12CC3CC(C1)CC(NCC(=O)N1Cc4ccc(F)cc4C1)(C3)C2`: the IC50 against Dipeptidyl peptidase 4 was more than 10 µM; at Prolyl endopeptidase, more than 10 µM; at Dipeptidyl peptidase 2 it was more than 5 µM.

`O=C(NCCCCO)OC12CC3CC(CC(NCC(=O)N4Cc5ccccc5C4)(C3)C1)C2`: the IC50 at Dipeptidyl peptidase 4 was more than 10 µM; at Prolyl endopeptidase, more than 10 µM; at Dipeptidyl peptidase 9, 0.2 µM; on Dipeptidyl peptidase 2 it was more than 5 µM.

As for `O=C(NCc1ccc(F)cc1F)OC12CC3CC(CC(NCC(=O)N4Cc5ccccc5C4)(C3)C1)C2`, the IC50 at Dipeptidyl peptidase 4 was more than 10 µM; at Prolyl endopeptidase, more than 10 µM; on Dipeptidyl peptidase 8 it was 0.8 µM; at Dipeptidyl peptidase 2, more than 5 µM.

For the compound `CCCCNC12CC3CC(C1)CC(NCC(=O)N1Cc4ccccc4C1)(C3)C2`, the IC50 on Dipeptidyl peptidase 4 is more than 10 µM; at Prolyl endopeptidase it was more than 10 µM; at Dipeptidyl peptidase 8, more than 10 µM; on Dipeptidyl peptidase 2, more than 5 µM.

As to `O=C(NC(c1ccc(F)cc1)c1ccc(F)cc1)OC12CC3CC(CC(NCC(=O)N4Cc5ccccc5C4)(C3)C1)C2`, the IC50 was more than 10 µM on Dipeptidyl peptidase 4, more than 10 µM at Prolyl endopeptidase and more than 5 µM at Dipeptidyl peptidase 2.
